Legend:
[1] = Blood glucose measurements after streptozotocin injections; format: in vivo, Swiss-Webster mice; details: three weekly intraperitoneal injections, 10 mg/100 g body weight; one week after the third injection
Method: (§1) Mice and treatment. Female, 8-month old Swiss-Webster mice were purchased from Jackson Laboratories. Diabetes was induced by three weekly intraperitoneal injections of streptozotocin (STZ; 10 mg/100 g body weight) in 50 mM sodium citrate, pH 4.5. […] Only mice with blood glucose levels higher than 3 mg/ml were used. Mice injected with equivalent volumes of sodium citrate at the same times served as controls. Mice were sacrificed one week after the last injection. Mice were fasted for 24 h before sacrifice.

hepatic gene expression = assay: Hepatic gene expression profiling of streptozotocin-induced diabetes (Affymetrix Mu11KsubA/Mu11KsubB arrays); format: in vivo, Swiss-Webster mice
Method: as §1
Measurement of Specific mRNA Levels. Total liver RNA was isolated from frozen tissue fragments using TRI Reagent (Molecular Research Center, Inc., Cincinnati, Ohio) as described previously (Cao et al., Proc. Natl. Acad. Sci. U.S. A. 98:10630-10635 (2001)). Specific mRNA levels were measured using the Affymetrix Mu11KsubA and Mu11KsubB high-density oligonucleotide arrays using standard Affymetrix protocols as described (Cao et al., Proc. Natl. Acad. Sci. U.S. A. 98:10630-10635 (2001)). Briefly, cDNA was prepared from total RNA using Superscript Choice System with a primer containing oligo(dT) and the T7 RNA polymerase promoter sequence. Biotinylated cRNA was synthesized from purified cDNA using the Enzo BioArray High Yield RNA Transcript Labeling Kit (Enzo Biochem), and CRNA purified using RNeasy mini columns (Qiagen, Chatsworth, Calif.). An equal amount of cRNA from each animal was separately hybridized to Mu11KsubA and Mu11ksubB high-density oligonucleotide arrays. The arrays were hybridized for 16 h at 45° C. After hybridization, arrays were washed, stained with streptavidin-phycoerythrin, and scanned using a Hewlett-Packard GeneArray Scanner.
Data Analysis and Statistics. Image analysis and data quantification were performed using the Affymetrix Microarray Suite 5.0. Affymetrix Mu11KsubA and Mu11KsubB arrays contain targets for more than 11,000 mouse genes and expressed sequence tags (ESTs). Each gene or EST is represented on the array by 20 perfectly matched (PM) oligonucleotides and 20 mismatched (MM) control probes that contain a single central-base mismatch. The signal intensities of PM and MM were used to calculate a discrimination score, R, which is equal to (PM−MM)/(PM+MM). A detection algorithm utilized R to generate a detection p-value and assign a Present, Marginal or Absent call using the Wilcoxon signed rank test (Wilcoxon F., Biometrics 1:80-83 (1945); Affymetrix, Inc., New Statistical Algorithms for Monitoring Gene Expression on GeneChip Probe Arrays, Technical Notes 1, Part No. 701097 Rev. 1 (2001)). Only genes that were “Present” in at least 2 out of 3 arrays per experimental group were considered for further analysis. A signal algorithm calculated the relative level of expression of each transcript using the One-Step Tukey's Biweight Estimate (Affymetrix, Inc., New Statistical Algorithms for Monitoring Gene Expression on GeneChip Probe Arrays, Technical Notes 1, Part No. 701097 Rev. 1 (2001)). This procedure generates a robust weighted mean that is relatively insensitive to outliers, even when they are extreme. Genes with a signal intensity lower than the mean array signal intensity in 2 or more of the 3 arrays in either experimental group were eliminated from the analysis. All arrays were scaled to a target intensity of 2500. To identify differentially expressed genes, each of the 3 control samples was compared with each of the 3 STZ-treated samples, resulting in 9 pairwise comparisons. […] Difference values (PM-MM) between the control and STZ-treated arrays were used to generate a one-sided p-value for each set of probes. Default boundaries between significant and not significant p-values were used (Affymetrix, Inc., New Statistical Algorithms for Monitoring Gene Expression on GeneChip Probe Arrays, Technical Notes 1, Part No. 701097 Rev. 1 (2001)). […]

CN(N=O)C(=O)N[C@H]1C(O)O[C@H](CO)[C@@H](O)[C@@H]1O (mixture of isomers) [STZ, streptozotocin]
2.4 fold: FC RIKEN cDNA 1810030E05 gene (hepatic gene expression; GenBank W64827, liver, STZ vs control mice) | FC Cytochrome c oxidase, subunit VIIa 3 (Cox7a3) mRNA (hepatic gene expression; GenBank W91222, liver, STZ vs control mice)
−2.5 fold: FC Cytochrome P450, 2c40 (Cyp2c40) mRNA (hepatic gene expression; GenBank AA137659, liver, STZ vs control mice) | FC Expressed sequence A1266885 (hepatic gene expression; GenBank AA250708, liver, STZ vs control mice)
−2.6 fold: FC RIKEN cDNA 1110061M03 gene (hepatic gene expression; GenBank W21013, liver, STZ vs control mice)
−2.8 fold: FC Hepatocyte growth factor activator HGFA (Hgfac) mRNA (hepatic gene expression; GenBank W12681, liver, STZ vs control mice)
−2.9 fold: FC mb19d12.rl Soares mouse cDNA clone IMAGE:329879, similar to ACTIN, AORTIC SMOOTH MUSCLE (hepatic gene expression; GenBank W12899, liver, STZ vs control mice) | FC CD 81 antigen (Cd81) mRNA (hepatic gene expression; GenBank W98255, liver, STZ vs control mice)
increases: expression of RAB 1 (hepatic gene expression; liver of SID mice) | expression of hepatic mRNA for insulin-like growth factor binding protein 2 (hepatic gene expression; liver of SID mice) | expression of inter-alpha trypsin inhibitor, heavy chain 3 (hepatic gene expression; liver of SID mice) | expression of lactate dehydrogenase 1 (hepatic gene expression; liver of SID mice) | expression of the flavin-containing monooxygenase 5 gene (hepatic gene expression; liver of SID mice) | expression of the gene for apolipoprotein H (hepatic gene expression; liver of SID mice) | expression of two cytochrome P450, 3a subfamily members (hepatic gene expression; liver of SID mice)
47: number of known genes with a change in expression (hepatic gene expression; liver, control vs STZ-treated mice, more than 11,000 genes and ESTs assessed, 1.8-fold or greater)
2.7 fold: FC RIKEN cDNA 1110004C05 gene (hepatic gene expression; GenBank W12941, liver, STZ vs control mice)
2.1 fold: FC X-box binding protein 1 (Xbp1) mRNA (hepatic gene expression; GenBank AA016424, liver, STZ vs control mice) | FC Activating transcription factor 5 (Atf5) mRNA (hepatic gene expression; GenBank AA270796, liver, STZ vs control mice) | FC Nuclear receptor coactivator 3 (Ncoa3) mRNA (hepatic gene expression; GenBank AA390043, liver, STZ vs control mice) | FC Ring finger protein 4 (Rnf4) mRNA (hepatic gene expression; GenBank AA600461, liver, STZ vs control mice) | FC mc25d02.rl Soares mouse cDNA clone IMAGE:349539 (hepatic gene expression; GenBank W3021 1, liver, STZ vs control mice)
−4.6 fold: FC Ribonuclease, Rnase A family 4 (Rnase4) mRNA (hepatic gene expression; GenBank AA289858, liver, STZ vs control mice)
−14.0 fold: FC Stearoyl-Coenzyme A desaturase 1 (Sed1) mRNA (hepatic gene expression; GenBank AA137436, liver, STZ vs control mice)
Decreased: expression of corticosteroid binding globulin (hepatic gene expression; liver of SID mice)
decreases: expression of alcohol dehydrogenase 1 (hepatic gene expression; liver of SID mice) | expression of complement component 4 (hepatic gene expression; liver of SID mice) | expression of cytochrome P450, 1a2 gene (hepatic gene expression; liver of SID mice) | expression of cytochrome P450, 2b13 gene (hepatic gene expression; liver of SID mice) | expression of cytochrome P450, 2c29 gene (hepatic gene expression; liver of SID mice) | expression of sorbitol dehydrogenase 1 (hepatic gene expression; liver of SID mice) | expression of thioether S-methyltransferase (hepatic gene expression; liver of SID mice)
2.5 fold: FC CathepsinL (Ctsl) mRNA (hepatic gene expression; GenBank AA096813, liver, STZ vs control mice) | FC NADH dehydrogenase (ubiquinone) 1 beta subcomplex 6 mRNA (hepatic gene expression; GenBank AA277720, liver, STZ vs control mice) | FC C77421 Mouse 3.5-dpc blastocyst cDNA clone J0030G04, similar to Mouse B10.VL30LTR gene (hepatic gene expression; GenBank C77421, liver, STZ vs control mice)
1.9 fold: FC RIKIEN cDNA 1810034D23 gene (hepatic gene expression; GenBank AA066610, liver, STZ vs control mice) | FC mp72b03.rl Soares thymus cDNA clone IMAGE:574733, similar to cyclophilin (hepatic gene expression; GenBank AA124572, liver, STZ vs control mice) | FC Protease (prosome, macropain) 28 subunit, alpha (Psme1) mRNA (hepatic gene expression; GenBank AA165782, liver, STZ vs control mice) | FC RIKEN cDNA 2310009NO5 gene (2310009N05Rik) (hepatic gene expression; GenBank AA260798, liver, STZ vs control mice) | FC vb90b12.rl Soares mouse 3NbMS cDNA clone IMAGE:764255 (hepatic gene expression; GenBank AA285530, liver, STZ vs control mice) | FC Splicing factor, arginine/serine-rich 5 (SRp40, HRS) (Sfrs5) mRNA (hepatic gene expression; GenBank AA388848, liver, STZ vs control mice) | FC Retinal taurine transporter; solute carrier family 6, member 6 (Slc6a6) mRNA (hepatic gene expression; GenBank AA472795, liver, STZ vs control mice) | FC RAB9, member RAS oncogene family (Rab9) mRNA (hepatic gene expression; GenBank AA518955, liver, STZ vs control mice) | FC Interferon alpha responsive gene, 15 kDa (Ifrg15-pending) mRNA (hepatic gene expression; GenBank AA608036, liver, STZ vs control mice) | FC ATP synthase, H+ transporting, mitochondrial F0 complex, subunit b, isoform 1 (Atp5f1) mRNA (hepatic gene expression; GenBank W08392, liver, STZ vs control mice) | FC Destrin (Dsn) mRNA (hepatic gene expression; GenBank W08453, liver, STZ vs control mice) | FC DEAD/H (Asp-Glu-Ala-Asp/His) box polypeptide 1 mRNA (hepatic gene expression; GenBank W13878, liver, STZ vs control mice) | FC RIKEN cDNA 2410038A03 gene (hepatic gene expression; GenBank W30137, liver, STZ vs control mice)
1.8 fold: FC Carbon catabolite repression 4 homolog (S. cerevisiae) (Ccr4) mRNA (hepatic gene expression; GenBank AA172909, liver, STZ vs control mice) | FC Erythroid differentiation regulator (Edr) mRNA (hepatic gene expression; GenBank AA174883, liver, STZ vs control mice) | FC Nuclear receptor coactivator 4 (Ncoa4) mRNA (hepatic gene expression; GenBank AA217659, liver, STZ vs control mice) | FC Splicing factor 3b, subunit 1, 155 kDa (Sf3b1) mRNA (hepatic gene expression; GenBank AA277153, liver, STZ vs control mice) | FC Expressed sequence AA960392 (hepatic gene expression; GenBank AA592283, liver, STZ vs control mice) | FC RIKEN cDNA 2700059D21 gene (hepatic gene expression; GenBank AA655730, liver, STZ vs control mice) | FC Expressed sequence C79645 (hepatic gene expression; GenBank C79645, liver, STZ vs control mice) | FC Tubulin cofactor a (Tbca) mRNA (hepatic gene expression; GenBank W18904, liver, STZ vs control mice)
−2.4 fold: FC Angiotensinogen (Agt) mRNA (hepatic gene expression; GenBank W17473, liver, STZ vs control mice)
increased: expression of Cytochrome c oxidase (hepatic gene expression; liver of SID mice) | expression of Glutathione S-transferase μ2 (hepatic gene expression; liver of SID mice) | expression of Glutathione S-transferase π2 (hepatic gene expression; liver of SID mice) | expression of NADH dehydrogenase 1 (hepatic gene expression; liver of SID mice) | expression of arginase 1 (hepatic gene expression; liver of SID mice) | expression of argininosuccinate synthetase 1 (hepatic gene expression; liver of SID mice)
diabetic: diabetic state by blood glucose measurements [1]
−2.0 fold: FC Isopentenyl-diphosphate delta-isomerase mRNA (hepatic gene expression; GenBank AA267683, liver, STZ vs control mice) | FC Sirtuin 2 (Sirt2) mRNA (hepatic gene expression; GenBank AA472476, liver, STZ vs control mice)
2.0 fold: FC RIKEN cDNA 1110002E23 gene (hepatic gene expression; GenBank AA000467, liver, STZ vs control mice) | FC Proteasome (prosome, macropain) subunit, alpha type 4 (Psma4) mRNA (hepatic gene expression; GenBank AA008321, liver, STZ vs control mice) | FC Cysteine-rich protein 2 (Csrp2) mRNA (hepatic gene expression; GenBank AA028770, liver, STZ vs control mice) | FC Poly A binding protein, cytoplasmic 1 (Pabpc1) mRNA (hepatic gene expression; GenBank AA106783, liver, STZ vs control mice) | FC Argininosuccinate lyase (As1) mRNA (hepatic gene expression; GenBank AA237297, liver, STZ vs control mice) | FC Cellular repressor of E1A-stimulated genes (Creg) mRNA (hepatic gene expression; GenBank AA271265, liver, STZ vs control mice) | FC RIKEN cDNA 1810020N21 gene (hepatic gene expression; GenBank AA538556, liver, STZ vs control mice) | FC vq87g01.r1 Knowles Solter mouse blastocyst B3 cDNA clone IMAGE: 1109328 (hepatic gene expression; GenBank AA666984, liver, STZ vs control mice) | FC Coagulation factor XII (Hageman factor) (F12) mRNA (hepatic gene expression; GenBank W34349, liver, STZ vs control mice) | FC Succinate dehydrogenase complex, subunit A, flavoprotein (Fp) (Sdha) mRNA (hepatic gene expression; GenBank W53390, liver, STZ vs control mice) | FC mf48c06.rl Soares mouse embryo cDNA clone IMAGE:408298 (hepatic gene expression; GenBank W85397, liver, STZ vs control mice)
2.6 fold: FC Similar to eukaryotic translation initiation factor 4 gamma, 1 (0610008L05Rik) (hepatic gene expression; GenBank AA038437, liver, STZ vs control mice)
3.6 fold: FC Bifunctional aminoacyl-tRNA synthetase mRNA (hepatic gene expression; GenBank AA048927, liver, STZ vs control mice) | FC Phosphoenolpyruvate carboxykinase 1, cytosolic (Pck1) mRNA (hepatic gene expression; GenBank AA110781, liver, STZ vs control mice)
induced: mRNA for heat shock 70 kD protein 5 (hepatic gene expression; liver of SID mice) | mRNA for hypoxia inducible factor 1 (hepatic gene expression; liver of SID mice) | mRNA for prolyl 4-hydroxylase, beta polypeptide (hepatic gene expression; liver of SID mice)
3.5 fold: FC Heat shock protein, 74 kDa, A (Hspa9A) mRNA (hepatic gene expression; GenBank AA138378, liver, STZ vs control mice) | FC Golgi reassembly stacking protein 2 (Grs2-pending) mRNA (hepatic gene expression; GenBank W13835, liver, STZ vs control mice)
−2.2 fold: FC Hepcidin antimicrobial peptide (Hamp) mRNA (hepatic gene expression; GenBank W12913, liver, STZ vs control mice)
Increased: expression of a proteasome subunit (hepatic gene expression; liver of SID mice) | expression of hepatic histidine ammonia lyase (hepatic gene expression; liver of SID mice)
